The source of these data is patent EP0547191B1, “PARTICULATE VECTOR HAVING SELECTIVE TROPISM, METHOD OF PREPARATION AND PHARMACEUTICAL COMPOSITION” (BIOVECTOR THERAPEUTICS SA, priority 1991, dated 1992).

The test system of the test is fibroblastes humains normaux. Nature of the test: Flow cytofluorimetry: cellular incorporation of doxorubicin measured by emitted fluorescence. The class given is cell-based. The settings on record: fibroblasts after 48h in lipoprotein-depleted medium. As for the experimental part: Après 48h de culture en milieu délipoprotéiné, les fibroblastes humains normaux sont incubés avec de la doxorubicine sous forme libre ou encapsulée dans des BVSM ou des BVSM-apoB. Après incubation, de 0, à 2h, ils sont lavés, mis en contact avec de la trypsine 0,05% pendant 1min à37°C, repris en suspension dans du milieu de culture et fixés par du paraformaldéhyde. Les suspensions cellulaires obtenues sont analysées à l'aide d'un cytofluorimètre de flux (Becton-Dickinson Fac-scan) et l'incorporation cellulaire de la doxorubicine est mesurée par l'intensité de fluorescence émise. Les témoins fibroblastes avec BVSM et BVSM-apoB sans doxorubicine ne présentent aucune fluoresence.
Les résultats obtenus sont présentés dans le tableau suivant : […]

As to `COc1cccc2c1C(=O)c1c(O)c3c(c(O)c1C2=O)C[C@@](O)(C(=O)CO)C[C@@H]3O[C@H]1C[C@H](N)[C@H](O)[C@H](C)O1` [Doxorubicine libre, doxorubicine], the “Intensité de fluorescence émise” value reads like this: (Temps d'incubation 0 min) 5; (Temps d'incubation 10 min) 22; (Temps d'incubation 30 min) 25; (Temps d'incubation 60 min) 31; (Temps d'incubation 120 min) 42.
